Assay results reported in patent US8835442B2, “3-substituted 7-imino-2-thioxo-3, 7-dihydro-2H-thiazolo [4,5-di pyrimidin-6-yl—and process for preparation thereof” (Council of Scientific & Industrial Research, priority 2009, dated 2014).
Like-named read-outs stand apart in the source and are kept apart here.

How the values were obtained:
A2A receptor = target: T1, A2A receptor (Homo sapiens, UniProt P29274); test: cAMP functional assay in forskolin-pretreated HEK 293 cells; assay type: cell-based; settings: 25 μM forskolin 2 h, then 100 nM compound for 24 h
T1 construct: host or cells: HEK 293
Protocol: To determine the modulation in cAMP concentrations, cells were pre-treated with Forskolin. Forskolin is commonly used to activate adenylyl cyclase, so as to raise the levels of cAMP, in the various cell physiology experiments. […] Cells were washed with ice-cold PBS (pH 7.4). Further, cells were treated with 0.1M HCl, incubated for 10 minutes and visually inspected to verify cell lysis. Lysed cells were centrifuged at 1000 rpm at room temperature and the supernatant was used directly for cAMP assay using direct cAMP assay kit. All standards and samples were run in duplicate. 50 μl of the neutralizing reagent was added into each well of 96-well microplate coated with goat anti-rabbit IgG antibody, except the total activity (TA) and blank wells. Again, 100 μl of HCl (0.1M) was added into the NSB (Non-specific bound) and the Bo (0 pmol/ml standard) Wells: 100 μl of standards 1 to 5 was pippeted into the appropriate wells. 50 μl of 0.1M HCl was added into the NSB wells, followed by 50 μl of blue conjugate (alkaline phosphatase conjugated with cAMP) into each well except the TA and blank wells. 50 μl of yellow coloured primary antibody against cAMP into each well, except the blank, TA and NSB wells. Microplate was incubated at room temperature for 2 hours on a plate shaker. Wells were washed twice with 400 μl of wash solution. 5 μl of blue conjugate was added to the TA wells, followed by the addition of 200 μl of p-nitrophenyl phosphate substrate solution to every well. Plate was again incubated for 1 hour without shaking. Reaction was stopped by adding 50 μl of stop solution to every well.
The average net O.D. bound for each standard and sample was calculated using formula; Average Net OD=Average bound OD−Average NSB OD
The binding of each pair of standard wells as a percentage of the maximum binding well (Bo) was calculated using the formula; Percent Bound=Net OD/Net Bo OD×100
Standard curve was prepared using Logit-Log Paper plot by drawing percent bound (B/Bo) versus concentration of cAMP for the standards. The concentration of the cAMP in the samples was determined by interpolation.
Binding parameters were estimated by the computerized non-linear fitting program Graph Pad (Prism 4.0). […] Data were expressed as geometric means with 95% confidence limits in parentheses. Estimation of cAMP concentrations in functional assay was carried by Student's paired t-test. P<0.05 was considered significant. All analysis was performed by using GraphPad Prism 4.0 (GraphPad Software, San Diego, USA). Results are given, as mean±S.E.M

human A1R = target: T2, human A1R (Homo sapiens, UniProt P30542); test: Competitive radioligand binding assay, [3H] DPCPX, membranes of HEK 293 cells stably expressing human A1R
T2 sequence (P30542 1-326): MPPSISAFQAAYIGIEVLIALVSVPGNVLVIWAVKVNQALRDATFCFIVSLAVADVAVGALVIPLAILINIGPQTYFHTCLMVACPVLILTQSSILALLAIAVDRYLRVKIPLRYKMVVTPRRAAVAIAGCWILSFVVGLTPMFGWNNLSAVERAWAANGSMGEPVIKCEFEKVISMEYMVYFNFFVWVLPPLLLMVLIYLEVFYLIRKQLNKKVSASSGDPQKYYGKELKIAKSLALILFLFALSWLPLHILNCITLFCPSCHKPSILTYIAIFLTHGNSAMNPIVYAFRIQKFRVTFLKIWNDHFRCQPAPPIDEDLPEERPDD
Protocol: (§1) Aliquots of membrane proteins from both A2AR and A1R were rapidly frozen and stored at −20° C.
(§2) About 10 μg of membrane protein was added to each well of multiscreen 96-well plate equipped with GF/B filters. Incubation buffer (50 mM Tris, 1 mM EDTA, pH 7.4) containing adenosine deaminase (1 U/ml) was added to each well to remove endogenous adenosine bound to the receptors and volume was adjusted to 100 μl by adding incubation buffer. Plate was incubated at 37° C. for 1 hour. […] Final volume was adjusted to 200 μl by adding incubation buffer and incubated at 26° C. for 30 minutes. Binding reaction was terminated by rapid filteration of filter plates using vacuum manifold system. Filterate (unbound radioligand) was collected in a 96-well plate laying down the filter plate. Filters were washed three times with ice-cold washing buffer (50 mM Tris-Cl; 2.5 mM MgCl2 pH 7.4). Finally, 100 μl of scintillation fluid was added to all wells of plate containing unbound filtrate as well as to the filter plate (bound radioligand) and incubated overnight at room temperature. […] DPCPX were read using β-counter.
(§3) About 10 μg of membrane protein was added to each well of a 96-well filter plate. Incubation buffer containing adenosine deaminase (1 U/ml) was added to the membrane protein and incubated at 37° C. for 1 hour, to remove endogenous adenosine. […] Filter plates were incubated at 26° C. for 30 minutes and reaction was terminated by rapid filtration of unbound radioligands. Filters containing ligand bound receptors were washed three times with ice-cold washing buffer to completely remove any unbound radioligand or receptor. Finally, 100 μl of scintillation fluid was added to each well and incubated overnight at room temperature. β-counts emitted from bound radioligands ([^3H] ZM241385 and [^3H] DPCPX) were counted using β-counter. Duplicate values of β-counts per minute at corresponding concentrations (1 pM to 1 μM) were added to the data sheet of graph pad prism 4.0. Concentration values were considered as X-values and counts per minute were considered as Y-values (in duplicate). X-values were transformed into logX and Ki value was calculated using nonlinear regression (curve fit program).
(§4) Binding parameters were estimated by the computerized non-linear fitting program Graph Pad (Prism 4.0). […] Data were expressed as geometric means with 95% confidence limits in parentheses. […] P<0.05 was considered significant. All analysis was performed by using GraphPad Prism 4.0 (GraphPad Software, San Diego, USA). Results are given, as mean±S.E.M

human A2AR = human A2AR (Homo sapiens, UniProt P29274); test: Competitive radioligand binding assay, [3H] ZM 241385, membranes of HEK 293 cells stably expressing human A2AR; settings: for selectivity over A1 adenosine receptor: A2AR versus A1R binding; for hA1/hA2A ratio: selectivity: Ki hA1 / Ki hA2A
Protocol: as §1, §2, §3, §4

[1] = read-out: hA1 binding Ki ± SD, displacement of 0.75 nM [3H] DPCPX, HEK 293 membranes, test compounds 1 pM to 1 μM
[2] = read-out: hA2A binding Ki ± SD, displacement of 1 nM [3H] ZM 241385, HEK 293 membranes, test compounds 1 pM to 1 μM

T1 sequence (P29274 whole entry): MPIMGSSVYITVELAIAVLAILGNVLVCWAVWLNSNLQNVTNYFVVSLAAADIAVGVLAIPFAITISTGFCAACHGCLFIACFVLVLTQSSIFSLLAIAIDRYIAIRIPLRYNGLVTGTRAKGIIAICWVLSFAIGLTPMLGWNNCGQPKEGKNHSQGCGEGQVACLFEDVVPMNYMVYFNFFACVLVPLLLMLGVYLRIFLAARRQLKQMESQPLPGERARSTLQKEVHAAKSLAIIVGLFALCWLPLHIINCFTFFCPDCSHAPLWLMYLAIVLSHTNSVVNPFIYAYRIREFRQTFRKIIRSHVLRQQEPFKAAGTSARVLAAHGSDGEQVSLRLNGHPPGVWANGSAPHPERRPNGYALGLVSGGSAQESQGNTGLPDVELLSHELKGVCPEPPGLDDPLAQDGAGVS
human A2AR, sequence (P29274 whole entry): as above

## N=c1c2sc(=S)n(-c3ccc(I)cc3)c2ncn1NC(N)=O [Compound 20, (3-p-iodophenyl-7-imino-2-thioxo-3,7-dihydro-2H-thiazolo[4,5-d]pyrimidin-6-yl)-urea]
A2A receptor
  cAMP concentration: 0.076 nM
Human A1R
  Ki: 2.5 ± 1.1 nM
other
  melting point: 235 °C
Human A2AR
  Ki: 0.017 ± 0.01 nM
  selectivity over A1 adenosine receptor: 144 fold
  hA1/hA2A ratio: 147.06

## N=c1c2sc(=S)n(-c3ccccc3)c2ncn1NC(N)=O [Compound 19, (7-Imino-3-phenyl-2-thioxo-3,7-dihydro-2H-thiazolo[4,5-d]pyrimidin-6-yl)-urea]
A2A receptor
  cAMP concentration: 0.078 nM
Human A1R
  Ki: 1.5 ± 1.1 nM
other
  melting point: 225 °C
Human A2AR
  Ki: 0.063 ± 0.008 nM
  hA1/hA2A ratio: 23.81

## CCCCn1c(=S)sc2c(=N)n(NC(N)=O)cnc21 [Compound 17, (7-Imino-3-butyl-2-thioxo-3,7-dihydro-2H-thiazolo[4,5-d]pyrimidin-6-yl)-urea]
A2A receptor
  cAMP concentration: 0.083 nM
Human A1R
  Ki: 1.04 ± 0.84 nM
other
  melting point: 222 °C
Human A2AR
  Ki: 0.089 ± 0.01 nM
  hA1/hA2A ratio: 11.685

## CCn1c(=S)sc2c(=N)n(NC(=O)c3ccco3)cnc21 [Compound 22, Furan-2-carboxylic acid (3-ethyl-7-imino-2-thioxo-3,7-dihydro-2H-thiazolo[4,5-d]pyrimidin-6-yl)-amide]
A2A receptor
  cAMP concentration: 0.12 nM
Human A1R
  Ki: 0.016 ± 0.01 nM
other
  melting point: 226 °C
Human A2AR
  Ki: 1.2 ± 1.1 nM
  hA1/hA2A ratio: 0.0133

## Furan-2-carboxylic acid (7-imino-3-propenyl-2-thioxo-3,7-dihydro-2H-thiazolo[4,5-d]pyrimidin-6-yl)-amide [Compound 25]
A2A receptor
  cAMP concentration: 0.084 nM
Human A1R; [1]
  Ki: 0.59 ± 0.11 nM
Human A2AR; [2]
  Ki: 0.17 ± 0.1 nM
Human A2AR
  hA1/hA2A ratio: 3.47

## CCCn1c(=S)sc2c(=N)n(NC(=O)c3ccco3)cnc21 [Compound 23, Furan-2-carboxylic acid (7-imino-3-propyl-2-thioxo-3,7-dihydro-2H-thiazolo[4,5-d]pyrimidin-6-yl)-amide]
A2A receptor
  cAMP concentration: 0.092 nM
Human A1R
  Ki: 0.087 ± 0.05 nM
other
  melting point: 206 °C
Human A2AR
  Ki: 0.024 ± 0.01 nM
  hA1/hA2A ratio: 3.625

## CCn1c(=S)sc2c(=N)n(NC(N)=O)cnc21 [Compound 15, (3-Ethyl-7-imino-2-thioxo-3,7-dihydro-2H-thiazolo[4,5-d]pyrimidin-6-yl)-urea]
A2A receptor
  cAMP concentration: 0.085 nM
other
  melting point: 212 °C
Human A2AR
  Ki: 0.09 ± 0.01 nM
  hA1/hA2A ratio: 0.00177

## N=c1c2sc(=S)n(Cc3ccccc3)c2ncn1NC(N)=O [Compound 21, (3-Benzyl-7-imino-2-thioxo-3,7-dihydro-2H-thiazolo[4,5-d]pyrimidin-6-yl)-urea]
A2A receptor
  cAMP concentration: 0.067 nM
Human A1R
  Ki: 0.14 ± 0.086 nM
other
  melting point: 190 °C
Human A2AR
  Ki: 0.023 ± 0.014 nM
  hA1/hA2A ratio: 6.09

## CCCn1c(=S)sc2c(=N)n(NC(N)=O)cnc21 [Compound 16]
A2A receptor
  cAMP concentration: 0.14 nM
Human A1R; [1]
  Ki: 2.8 ± 0.8 nM
other
  melting point: 220 °C
Human A2AR
  selectivity over A1 adenosine receptor: 766 fold
  hA1/hA2A ratio: 736.84
Human A2AR; [2]
  Ki: 0.0038 ± 0.001 nM

## C=CCn1c(=S)sc2c(=N)n(NC(N)=O)cnc21 [Compound 18]
A2A receptor
  cAMP concentration: 0.08 nM
Human A1R
  Ki: 0.47 ± 0.1 nM
other
  melting point: 202 °C
Human A2AR
  Ki: 0.092 ± 0.01 nM
  hA1/hA2A ratio: 5.11

## CCCCn1c(=S)sc2c(=N)n(NC(=O)c3ccco3)cnc21 [Compound 24, Furan-2-carboxylic acid (3-butyl-7-imino-2-thioxo-3,7-dihydro-2H-thiazolo[4,5-d]pyrimidin-6-yl)-amide]
A2A receptor
  cAMP concentration: 0.06 nM
Human A1R
  Ki: 0.0053 ± 0.001 nM
other
  melting point: 210 °C
Human A2AR
  Ki: 0.029 ± 0.01 nM
  hA1/hA2A ratio: 0.183

## N=c1c2sc(=S)n(-c3ccccc3)c2ncn1NC(=O)c1ccco1 [Compound 26, Furan-2-carboxylic acid (7-imino-3-phenyl-2-thioxo-3,7-dihydro-2H-thiazolo[4,5-d]pyrimidin-6-yl)-amide]
A2A receptor
  cAMP concentration: 0.048 nM
Human A1R
  Ki: 0.0085 ± 0.001 nM
other
  melting point: 228 °C
Human A2AR
  Ki: 0.33 ± 0.75 nM
  hA1/hA2A ratio: 0.026
